Tested on: 922993-354-T-J3-PDC complex spheroid viability
Assay: Anticancer human tumor 922993-354-T-J3-PDC patient-derived endometrial carcinoma cell line growth inhibition [POLQ]
Conditions: for IC50: curve of first compound; for viability, T/C: stronger effect = lower value
Method in brief: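 Complex spheroid viability model combining PDC tumour cells with endothelial (HUVEC) and MSC stromal cells. Novobiocin, ART-558 or RP6685 were tested singly and in combination with standard and investigational anticancer drugs. Each was titrated in half-log steps from near clinical Cmax, or from 10 microM where Cmax was unknown.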
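Note: spheroids exposed to the agents for one week.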
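Throughout, for viability, T/C: 100% = DMSO vehicle control wells.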

CC(=O)O[C@H]1C(=O)[C@@]2(C)[C@H]([C@H](OC(=O)c3ccccc3)[C@]3(O)C[C@H](OC(=O)[C@H](O)[C@@H](NC(=O)c4ccccc4)c4ccccc4)C(C)=C1C3(C)C)[C@]1(OC(C)=O)CO[C@@H]1C[C@@H]2O + Cc1cccc(N(C)C(=O)C2C(O)CCN2c2nc(C)cc(C(F)(F)F)c2C#N)c1
IC50 (second compound 0.0316 µM): > 3000 nM
IC50 (second compound 0.1 µM): > 3000 nM
IC50 (second compound 0.316 µM): > 3000 nM
IC50 (second compound 1 µM): > 3000 nM
IC50 (second compound 3.16 µM): > 3000 nM
IC50 (second compound 10 µM): > 3000 nM
viability, T/C (second compound 0.0316 µM, first compound 0.00949 µM): 100%
viability, T/C (second compound 0.0316 µM, first compound 0.03 µM): 102%
viability, T/C (second compound 0.0316 µM, first compound 0.0949 µM): 101%
viability, T/C (second compound 0.0316 µM, first compound 0.3 µM): 103%
viability, T/C (second compound 0.0316 µM, first compound 0.949 µM): 98.5%
viability, T/C (second compound 0.0316 µM, first compound 3 µM): 76.6%
viability, T/C (second compound 0.1 µM, first compound 0.00949 µM): 105%
viability, T/C (second compound 0.1 µM, first compound 0.03 µM): 107%
viability, T/C (second compound 0.1 µM, first compound 0.0949 µM): 99.4%
viability, T/C (second compound 0.1 µM, first compound 0.3 µM): 99.8%
viability, T/C (second compound 0.1 µM, first compound 0.949 µM): 98.9%
viability, T/C (second compound 0.1 µM, first compound 3 µM): 66.9%
viability, T/C (second compound 0.316 µM, first compound 0.00949 µM): 104%
viability, T/C (second compound 0.316 µM, first compound 0.03 µM): 103%
viability, T/C (second compound 0.316 µM, first compound 0.0949 µM): 99.9%
viability, T/C (second compound 0.316 µM, first compound 0.3 µM): 103%
viability, T/C (second compound 0.316 µM, first compound 0.949 µM): 95.5%
viability, T/C (second compound 0.316 µM, first compound 3 µM): 73.3%
viability, T/C (second compound 1 µM, first compound 0.00949 µM): 104%
viability, T/C (second compound 1 µM, first compound 0.03 µM): 98.2%
viability, T/C (second compound 1 µM, first compound 0.0949 µM): 99%
viability, T/C (second compound 1 µM, first compound 0.3 µM): 101%
viability, T/C (second compound 1 µM, first compound 0.949 µM): 91.8%
viability, T/C (second compound 1 µM, first compound 3 µM): 64.8%
viability, T/C (second compound 3.16 µM, first compound 0.00949 µM): 99.8%
viability, T/C (second compound 3.16 µM, first compound 0.03 µM): 105%
viability, T/C (second compound 3.16 µM, first compound 0.0949 µM): 100%
viability, T/C (second compound 3.16 µM, first compound 0.3 µM): 95%
viability, T/C (second compound 3.16 µM, first compound 0.949 µM): 70.5%
viability, T/C (second compound 3.16 µM, first compound 3 µM): 63.5%
viability, T/C (second compound 10 µM, first compound 0.00949 µM): 97.3%
viability, T/C (second compound 10 µM, first compound 0.03 µM): 99.3%
viability, T/C (second compound 10 µM, first compound 0.0949 µM): 75.5%
viability, T/C (second compound 10 µM, first compound 0.3 µM): 66.7%
viability, T/C (second compound 10 µM, first compound 0.949 µM): 63.3%
viability, T/C (second compound 10 µM, first compound 3 µM): 48.7%

CCc1c2c(nc3ccc(O)cc13)-c1cc3c(c(=O)n1C2)COC(=O)[C@]3(O)CC + Cc1cccc(N(C)C(=O)C2C(O)CCN2c2nc(C)cc(C(F)(F)F)c2C#N)c1
IC50 (second compound 0.0316 µM): 11.6 nM
IC50 (second compound 0.1 µM): 14.3 nM
IC50 (second compound 0.316 µM): 14.2 nM
IC50 (second compound 1 µM): 17 nM
IC50 (second compound 3.16 µM): 13 nM
IC50 (second compound 10 µM): 6.84 nM
viability, T/C (second compound 0.0316 µM, first compound 0.00316 µM): 89.5%
viability, T/C (second compound 0.0316 µM, first compound 0.01 µM): 55%
viability, T/C (second compound 0.0316 µM, first compound 0.0316 µM): 15.1%
viability, T/C (second compound 0.0316 µM, first compound 0.1 µM): 12.8%
viability, T/C (second compound 0.0316 µM, first compound 0.316 µM): 12.9%
viability, T/C (second compound 0.0316 µM, first compound 1 µM): 15%
viability, T/C (second compound 0.1 µM, first compound 0.00316 µM): 91.8%
viability, T/C (second compound 0.1 µM, first compound 0.01 µM): 63.5%
viability, T/C (second compound 0.1 µM, first compound 0.0316 µM): 20.2%
viability, T/C (second compound 0.1 µM, first compound 0.1 µM): 11.3%
viability, T/C (second compound 0.1 µM, first compound 0.316 µM): 12.8%
viability, T/C (second compound 0.1 µM, first compound 1 µM): 16.3%
viability, T/C (second compound 0.316 µM, first compound 0.00316 µM): 100%
viability, T/C (second compound 0.316 µM, first compound 0.01 µM): 63.4%
viability, T/C (second compound 0.316 µM, first compound 0.0316 µM): 19.7%
viability, T/C (second compound 0.316 µM, first compound 0.1 µM): 11.9%
viability, T/C (second compound 0.316 µM, first compound 0.316 µM): 12.4%
viability, T/C (second compound 0.316 µM, first compound 1 µM): 17.1%
viability, T/C (second compound 1 µM, first compound 0.00316 µM): 100%
viability, T/C (second compound 1 µM, first compound 0.01 µM): 72.8%
viability, T/C (second compound 1 µM, first compound 0.0316 µM): 23.5%
viability, T/C (second compound 1 µM, first compound 0.1 µM): 10.3%
viability, T/C (second compound 1 µM, first compound 0.316 µM): 12.4%
viability, T/C (second compound 1 µM, first compound 1 µM): 15.3%
viability, T/C (second compound 3.16 µM, first compound 0.00316 µM): 90.9%
viability, T/C (second compound 3.16 µM, first compound 0.01 µM): 58.3%
viability, T/C (second compound 3.16 µM, first compound 0.0316 µM): 21.7%
viability, T/C (second compound 3.16 µM, first compound 0.1 µM): 9.8%
viability, T/C (second compound 3.16 µM, first compound 0.316 µM): 12.3%
viability, T/C (second compound 3.16 µM, first compound 1 µM): 17.4%
viability, T/C (second compound 10 µM, first compound 0.00316 µM): 82.3%
viability, T/C (second compound 10 µM, first compound 0.01 µM): 34.1%
viability, T/C (second compound 10 µM, first compound 0.0316 µM): 10.5%
viability, T/C (second compound 10 µM, first compound 0.1 µM): 10%
viability, T/C (second compound 10 µM, first compound 0.316 µM): 13.9%
viability, T/C (second compound 10 µM, first compound 1 µM): 17.7%
